Assay: Solubility in water
Type: physicochemical
Conditions: water at 75° F. (ca. 24° C.), expressed as Cl2

Row | solubility in water | SMILES
1 | about 405 ppm | CC1(C)C(=O)N(Br)C(=O)N1Br [1,3-dibromo-5,5dimethylhydantoin, 1,3-dibromo-5,5-dimethylhydantoin]
2 | about 890 ppm | CC1(C)C(=O)N(Cl)C(=O)N1Br [N,N′-bromochloro-5,5-dimethylhydantoin]

Reference: US20060073216A1, “Compositions and methods for control of bovine mastitis” (Solution Biosciences, Inc., priority 2002, published 2006)
